{"source": "patent US20240197928A1", "about": "“SODIUM-DEPENDENT GLUCOSE TRANSPORTER 2 AS A DIAGNOSTIC AND THERAPEUTIC TARGET FOR PRE-MALIGNANT LESIONS” (THE REGENTS OF THE UNIVERSITY OF CALIFORNIA, priority 2019, published 2024)", "key": {"SGLT2": {"target": "SGLT2 (Homo sapiens, UniProt P31639)", "conditions": "reference 39; cited from earlier work"}, "[1]": {"tested_on": "patient-derived xenografts of human LADC", "test": "Therapeutic trial in patient-derived xenografts of human LADC", "assay_type": "in vivo, NSG mice", "text": "Patient-derived xenografts. The tumor samples were obtained from surgically resected specimens after informed consent under the UCLA Lung SPORE (PDX #004 and #011) or the Long Beach Memorial Hospital Institutional Review Board protocol (PDX #013). One of the PDXs (#186) was purchased from the Jackson laboratories. PDXs were established and passaged in NSG mice. NSG mice were procured from the UCLA Radiation Oncology breeding colony. For each mouse, two small pieces of tumor tissue (4 mm^3) were implanted subcutaneously in the flank regions.\nPatient-derived xenografts. The mice were randomized in two therapeutic groups (same as for the trials in GEMMs): placebo and canagliflozin (30 mg/kg per day) The number of mice per group was four for PDX #011, eight for PDX #013, three for PDX #004, and five for PDX #186; each mouse was inoculated with two tumors (one tumor on each flank). Some of the tumors of PDX #011 developed soft tissue metastases in the axillary regions, and these were counted as separate tumors. Overall, 38 tumors were included in the placebo and 39 tumors in the canagliflozin group. […] The tumor volumes at 2 weeks were counted as final tumor volumes.\nMice were imaged by Me4FDG and FDG PET/CT before treatment and 2 weeks after starting treatment. […] The mice were sacrificed, and the tumors were analyzed after 1 month of treatment. […]"}, "[2]": {"tested_on": "lung tumors in KPluc mice", "test": "Therapeutic trials in the KPluc genetically engineered mouse model of LADC", "conditions": "vs placebo"}, "[3]": {"tested_on": "patient-derived xenografts of human LADC", "test": "Me4FDG and FDG microPET in PDXs before and 2 weeks after the beginning of treatment", "assay_type": "in vivo, NSG mice", "conditions": "canagliflozin 30 mg/kg per day", "method": "For the microPET in PDXs, a subset of the mice (PDXs #004, #013, and #186) received both Me4FDG and FDG PET scans the day before and 2 weeks after the beginning of treatment to evaluate the response of glucose transporter activity to the treatment.\nThe animals were anesthetized with 1.5% (v/v) isoflurane in oxygen, were given a dose of 100 μCi of Me4FDG or FDG via tail vein injection, and were maintained under anesthesia for 1 hour of unconscious uptake. The mice were then immobilized on the imaging bed and received a 10-min static PET scan followed by a CT scan. Each mouse received two different PET scans with the two tracers (Me4FDG and FDG) on consecutive days to allow for tracer decay. The equipments used were Focus 220 microPET scanner (Concorde Microsystems) and Inveon microPET scanner (Siemens) for the microPET scans and CrumpCAT (UCLA Crump Institute) for the microCT.\nThe PET data were analyzed with AMIDE software version 1.0.4 (amide.sourceforge.net/) (55). […] The percentage of injected dose for each ROI was calculated by dividing the measured activity in the ROI by the total injected dose, as measured from the PET image by designing an ROI encompassing the whole mouse. […] Briefly, we evaluated the background signal for each mouse by designing a ROI corresponding to the normal lung. We then calculated the CNR for each nodule by using the following formula (31)"}}, "data": [{"smiles": "Cc1ccc([C@@H]2O[C@H](CO)[C@@H](O)[C@H](O)[C@H]2O)cc1Cc1ccc(-c2ccc(F)cc2)s1", "note": "[canagliflozin]", "values": [{"measurement": "effectiveness as SGLT2 inhibitor compared with dapagliflozin", "setting": "SGLT2", "value": "more effective SGLT2 inhibitor than dapagliflozin"}, {"measurement": "final tumor volumes lower than the control mice", "setting": "[1]; 30 mg/kg per day oral gavage for 1 month, four PDXs, P=0.003", "value": "about 47%"}, {"measurement": "geometric mean ratio of final tumor volumes, treated vs control", "setting": "[1]; 95% confidence interval 0.36 to 0.80, P=0.003, adjusted for trial and mouse random effects", "value": 0.53}, {"measurement": "Tumor burden estimated by bioluminescence imaging (BLI)", "setting": "[2]; 30 mg/kg per day oral gavage from 2 weeks after tumor induction, P<0.001", "value": "significantly lower"}, {"measurement": "onset of tumors (BLI signal up to week 8)", "setting": "[2]; 30 mg/kg per day oral gavage, P<0.001", "value": "significantly delayed"}, {"measurement": "tumor burden by histological analysis of the lungs and measurement of tumor area", "setting": "[2]; at 8 weeks and in the survival cohort, P<0.05", "value": "significantly lower tumor burden"}, {"measurement": "mouse survival", "setting": "[2]; treated until death, n=15 per group, P=0.0003", "value": "significantly prolonged"}, {"measurement": "Ki67 proliferation rate in solid LADCs", "setting": "[2]", "value": "not in solid LADCs"}, {"measurement": "Ki67 proliferation rate in premalignant lesions", "setting": "[2]; P=0.001", "value": "significantly lower"}, {"measurement": "FDG signal from day 0 to day 14", "setting": "[3]", "value": "did not significantly change"}, {"measurement": "Me4FDG uptake from day 0 to day 14", "setting": "[3]; P<0.001", "value": "significantly reduced"}]}]}
